Earlier results as cited in patent US20200319191A1, “MOLECULAR PROFILING FOR CANCER” (Caris MPI, Inc., priority 2015, published 2020).
Like-named read-outs stand apart in the source and are kept apart here.

Details: for sensitivity of AML tumor cells by NPM status: AML tumor cells with mutant NPM; for resistance by ALK secondary mutations: ALK secondary mutations found in NSCLC; for sensitivity by EGFRvIII expression: preliminary studies; for Bene. Level, PGP Positive (IHC) / Evid. Level, PGP Positive (IHC): Anthracyclines
[1] = Hormonal Agents, ER Positive (IHC)=T

## CC(C)(C#N)c1cc(Cn2cncn2)cc(C(C)(C)C#N)c1 [anastrozole]
Hormonal Agents, ER Positive (IHC)=F
  Evid. Level, ER Positive (IHC): 1
[1]
  Bene. Level, ER Positive (IHC): 1
  Evid. Level, ER Positive (IHC): 1

## CC[C@@]1(O)C(=O)OCc2c1cc1n(c2=O)Cc2cc3ccccc3nc2-1 [camptothecin]
  sensitivity of AML tumor cells by NPM status: research shows AML tumor cells with mutant NPM are more sensitive to

## Cc1cc(Nc2ncc(Cl)c(Nc3ccccc3S(=O)(=O)C(C)C)n2)c(OC(C)C)cc1C1CCNCC1 [ceritinib]
  resistance by ALK secondary mutations: mutations found in NSCLC have been associated with acquired resistance to ALK

## C[C@@H](Oc1cc(-c2cnn(C3CCNCC3)c2)cnc1N)c1c(Cl)ccc(F)c1Cl [crizotinib]
  resistance by ALK secondary mutations: mutations found in NSCLC have been associated with acquired resistance to ALK
ROS-rearranged NSCLC patients, clinical data
  sensitivity and response by ROS1 status: improved response to the MET/ALK/ROS inhibitor, crizotinib.

## COc1cc2ncnc(Nc3ccc(F)c(Cl)c3)c2cc1NC(=O)/C=C/CN1CCCCC1 [dacomitinib]
  sensitivity by EGFRvIII expression: higher sensitivity to erlotinib and gefitinib, as well as to pan-Her inhibitors including

## COc1cccc2c1C(=O)c1c(O)c3c(c(O)c1C2=O)C[C@@](O)(C(C)=O)C[C@@H]3O[C@H]1C[C@H](N)[C@H](O)[C@H](C)O1 [daunorubicin]
  sensitivity of AML tumor cells by NPM status: research shows AML tumor cells with mutant NPM are more sensitive to

## CC(=O)O[C@@]12CO[C@@H]1C[C@H](O)[C@@]1(C)C(=O)[C@H](O)C3=C(C)[C@@H](OC(=O)[C@H](O)[C@@H](NC(=O)OC(C)(C)C)c4ccccc4)C[C@@](O)([C@@H](OC(=O)c4ccccc4)[C@H]21)C3(C)C [docetaxel]
IHC positive: TLE3 F, TUBB3 F, PGP F
  PGP Positive (IHC) Bene. Level: 1
IHC positive: TLE3 F, TUBB3 F, PGP T
  PGP Positive (IHC) Bene. Level: 2
IHC positive: TLE3 F, TUBB3 No Data, PGP F
  PGP Positive (IHC) Bene. Level: 1
IHC positive: TLE3 F, TUBB3 No Data, PGP T
  PGP Positive (IHC) Bene. Level: 3
IHC positive: TLE3 F, TUBB3 T, PGP F
  PGP Positive (IHC) Bene. Level: 1
IHC positive: TLE3 F, TUBB3 T, PGP T
  PGP Positive (IHC) Bene. Level: 3
IHC positive: TLE3 No Data, TUBB3 F, PGP F
  PGP Positive (IHC) Bene. Level: 1
IHC positive: TLE3 No Data, TUBB3 F, PGP T
  PGP Positive (IHC) Bene. Level: 2
IHC positive: TLE3 No Data, TUBB3 No Data, PGP F
  PGP Positive (IHC) Bene. Level: 1
IHC positive: TLE3 No Data, TUBB3 No Data, PGP T
  PGP Positive (IHC) Bene. Level: 3
IHC positive: TLE3 No Data, TUBB3 T, PGP F
  PGP Positive (IHC) Bene. Level: 1
IHC positive: TLE3 No Data, TUBB3 T, PGP T
  PGP Positive (IHC) Bene. Level: 3
IHC positive: TLE3 T, TUBB3 F, PGP F
  PGP Positive (IHC) Bene. Level: 1
IHC positive: TLE3 T, TUBB3 F, PGP T
  PGP Positive (IHC) Bene. Level: 2
IHC positive: TLE3 T, TUBB3 No Data, PGP F
  PGP Positive (IHC) Bene. Level: 1
IHC positive: TLE3 T, TUBB3 No Data, PGP T
  PGP Positive (IHC) Bene. Level: 2
IHC positive: TLE3 T, TUBB3 T, PGP F
  PGP Positive (IHC) Bene. Level: 1
IHC positive: TLE3 T, TUBB3 T, PGP T
  PGP Positive (IHC) Bene. Level: 2
Taxanes rule, Ref. No. 28
  PGP Positive (IHC) Evid. Level: 3

## COc1cccc2c1C(=O)c1c(O)c3c(c(O)c1C2=O)C[C@@](O)(C(=O)CO)C[C@@H]3O[C@H]1C[C@H](N)[C@H](O)[C@H](C)O1 [doxorubicin, reference compound]
PGP Positive (IHC)=F
  Bene. Level, PGP Positive (IHC): 1
  Evid. Level, PGP Positive (IHC): 2
PGP Positive (IHC)=T
  Bene. Level, PGP Positive (IHC): 2
  Evid. Level, PGP Positive (IHC): 2

## CNC(=O)c1ccc(N2C(=S)N(c3ccc(C#N)c(C(F)(F)F)c3)C(=O)C2(C)C)cc1F [enzalutamide]
Specific mutations in AR (e.g. F876L, AR-V7)
  resistance by AR mutations: F876L, AR-V7) are associated with resistance to newer-generation, AR-targeted therapies

## COc1cccc2c1C(=O)c1c(O)c3c(c(O)c1C2=O)C[C@@](O)(C(=O)CO)C[C@@H]3O[C@H]1C[C@H](N)[C@@H](O)[C@H](C)O1 [epirubicin]
PGP Positive (IHC)=F
  Bene. Level, PGP Positive (IHC): 1
  Evid. Level, PGP Positive (IHC): 2
PGP Positive (IHC)=T
  Bene. Level, PGP Positive (IHC): 2
  Evid. Level, PGP Positive (IHC): 2

## C#Cc1cccc(Nc2ncnc3cc(OCCOC)c(OCCOC)cc23)c1 [erlotinib]
  sensitivity by EGFRvIII expression: higher sensitivity to erlotinib and gefitinib, as well as to pan-Her inhibitors including
T790M in exon 20
  response by EGFR secondary mutation: mutation, T790M in exon 20, confers reduced response. Non-small cell lung cancer cancer
in-frame deletions in exon 19 or point mutations in exon 21
  sensitivity by EGFR gain-of-function mutations: point mutations in exon 21, confer sensitivity to first- and second-generation tyrosine

## CO[C@H]1C[C@@H]2CC[C@@H](C)[C@@](O)(O2)C(=O)C(=O)N2CCCC[C@H]2C(=O)O[C@H]([C@H](C)C[C@@H]2CC[C@@H](OCCO)[C@H](OC)C2)CC(=O)[C@H](C)/C=C(\C)[C@@H](O)[C@@H](OC)C(=O)[C@H](C)C[C@H](C)/C=C/C=C/C=C/1C [everolimus]
PIK3CA exon 20 mutations
  benefit by PIK3CA status: associated with benefit from mTOR inhibitors (everolimus, temsirolimus). Evidence
